20 molecules from ChEMBL document CHEMBL1142880, “Synthesis and anti-HIV activity evaluation of 1-[(alkenyl or alkynyl or alkyloxy)methyl]-5-alkyl-6-(1-naphthoyl)-2,4-pyrimidinediones as novel non-nucleoside HIV-1 reverse transcriptase inhibitors” (Eur J Med Chem, 2007) can be followed below.

Each structure is given as a SMILES string.

Data set [1] has as its system Human immunodeficiency virus 1. The data set is described as follows: Antiviral activity against HIV1 3B in MT4 cells after 4 days by MTT method. Format: functional, organism-based. The conditions noted are these: Human immunodeficiency virus 1, 3B, MT4, 96 h. For orientation: Tetrazolium assays rely on reduction of a dye to a coloured formazan, in cell work by metabolically active cells.

The nature of data set [2]: Selectivity index, ratio of CC50 for MT4 cells to IC50 for HIV1 3B. Format: functional.
For data set [3], the system named is Human immunodeficiency virus 2. The data set can be described thus: Antiviral activity against HIV2 ROD in MT4 cells after 4 days by MTT method. Format: functional, organism-based. As to conditions: Human immunodeficiency virus 2, ROD, MT4, 96 h.
The nature of data set [4]: Cytotoxicity against MT4 cells after 4 days by MTT method. It counts as cell-based. As to conditions: human.

For `CCOCn1c(C(=O)c2cccc3ccccc23)c(C)c(=O)[nH]c1=O`, the IC50 was 4.02 µM in data set [1] and greater than 51.7 µM in data set [3]. The “Ratio CC50/IC50” value in data set [2] is 13. Moreover, in data set [4], the CC50 at 96 h was 51.7 µM.
The like results for `CCc1c(C(=O)c2cccc3ccccc23)n(COCc2ccccc2)c(=O)[nH]c1=O` were, in that order, 0.15 µM, greater than 38.6 µM, 257 and 38.6 µM.
Take `C=CCOCn1c(C(=O)c2cccc3ccccc23)c(C)c(=O)[nH]c1=O`: the half-inhibitory concentration (IC50) in data set [1] is 2.11 µM; in data set [3], greater than 131 µM. Besides, the “Ratio CC50/IC50” value in data set [2] amounted to 62. In data set [4], this molecule yielded a CC50 at 96 h of 131 µM.
In the same order, the values of `CCOCn1c(C(=O)c2cccc3ccccc23)c(CC)c(=O)[nH]c1=O` are 0.28 µM, greater than 23 µM, 78 and 23 µM.
In the same order, the values of `CC(C)=CCn1c(C(=O)c2cccc3ccccc23)c(C)c(=O)[nH]c1=O` are greater than 44.6 µM, greater than 131 µM, less than 1 and 44.6 µM.
In the same order, the values of `CC(C)c1c(C(=O)c2cccc3ccccc23)n(COCc2ccccc2)c(=O)[nH]c1=O` are 0.11 µM, greater than 26.9 µM, 233 and 26.9 µM.
For the molecule `C=CCOCn1c(C(=O)c2cccc3ccccc23)c(CC)c(=O)[nH]c1=O`, the IC50 in data set [1] was 0.19 µM; in data set [3], greater than 45.6 µM. Besides, in data set [2], the “Ratio CC50/IC50” value was found to be 243. In data set [4], the CC50 at 96 h amounted to 45.6 µM.
In the same order, the values of `CC(=O)OC/C=C(\C)Cn1c(C(=O)c2cccc3ccccc23)c(C)c(=O)[nH]c1=O` are 41.4 µM, greater than 200 µM, 5 and 200 µM.
Regarding `CCc1c(C(=O)c2cccc3ccccc23)n(COCC2CC2)c(=O)[nH]c1=O`, the 50% inhibitory concentration (IC50) is 0.93 µM in data set [1] and greater than 45.3 µM in data set [3]. Further, in data set [2], the “Ratio CC50/IC50” value is reported as 48. The molecule further gave a CC50 at 96 h in data set [4] of 45.3 µM.
Consider `Cc1c(Sc2ccccc2)n(COCCO)c(=O)[nH]c1=O` [HEPT], for which the “Ratio CC50/IC50” value in data set [2] is listed as 80. The molecule further had an IC50 in data set [3] greater than 406 µM. Further, in data set [4], the CC50 at 96 h stood at 405 µM.
In the case of `Cc1c(C(=O)c2cccc3ccccc23)n(COCC2CC2)c(=O)[nH]c1=O`, the results for the IC50 in data set [1] and in data set [3] were 7.69 µM and greater than 77.6 µM, respectively. For the same molecule, the “Ratio CC50/IC50” value in data set [2] was determined as 10. This molecule also yielded a 50% cytotoxic concentration (CC50) at 96 h in data set [4] of 77.6 µM.
The like results for `CCc1c(C(=O)c2cccc3ccccc23)n(COCC=C(C)C)c(=O)[nH]c1=O` were, in that order, 6.89 µM, greater than 36.4 µM, 5 and 36.4 µM.
The like results for `CC(C)=CCn1c(C(=O)c2cccc3ccccc23)c(C(C)C)c(=O)[nH]c1=O` were, in that order, 2.42 µM, greater than 30.8 µM, 13 and 30.8 µM.
The like results for `Cc1c(C(=O)c2cccc3ccccc23)n(CC#Cc2ccccc2)c(=O)[nH]c1=O` were, in that order, 2.79 µM, greater than 29.9 µM, 11 and 29.9 µM.
Take `Cc1c(C(=O)c2cccc3ccccc23)n(COCc2ccccc2)c(=O)[nH]c1=O`: the results for the concentration for half-maximal inhibition (IC50) in data set [1] and in data set [3] were 1.6 µM and greater than 45.6 µM, respectively. In addition, in data set [2], the “Ratio CC50/IC50” value worked out at 29. Besides, in data set [4], the CC50 at 96 h came out at 45.6 µM.
In the same order, the values of `CCc1c(C(=O)c2cccc3ccccc23)n(CC#Cc2ccccc2)c(=O)[nH]c1=O` are 0.21 µM, greater than 17 µM, 83 and 17 µM.
On to `O=c1[nH]cnc2c1ncn2[C@H]1CC[C@@H](CO)O1` [DIDANOSINE], for which the “Ratio CC50/IC50” value in data set [2] was “>=98”. The molecule also showed a CC50 at 96 h in data set [4] of no less than 529 µM.
As to `CCc1c(C(=O)c2cccc3ccccc23)n(C/C=C/C(=O)OC)c(=O)[nH]c1=O`, the IC50 is 0.71 µM in data set [1] and greater than 38.6 µM in data set [3]. Moreover, in data set [2], the “Ratio CC50/IC50” value came to 54. Besides, it took 38.6 µM to reach half-maximal cytotoxicity in data set [4] (CC50 at 96 h).
In the same order, the values of `CCc1c(C(=O)c2cccc3ccccc23)n(COCc2ccc([N+](=O)[O-])cc2)c(=O)[nH]c1=O` are 0.54 µM, greater than 30.5 µM, 55 and 30.5 µM.
In the same order, the values of `CCc1c(C(=O)c2cccc3ccccc23)n(CC2CC=CC2)c(=O)[nH]c1=O` are 0.22 µM, greater than 18.6 µM, 84 and 18.6 µM.

One may read the IC50 as the concentration that gives 50% inhibition. A low value points to inhibition by little substance. By CC50 is commonly meant the concentration giving 50% cytotoxicity. Read a low CC50 as harm at low concentration.
